{"source": "patent US20090081143A1", "about": "“Extracts From Black Yeast For Whitening Skin” (priority 2007, published 2009)", "tested_on": "UV-B induced tan", "assay": "Whitening action: fading of UV-B induced tan on the backs of volunteers (Minolta Chromameter reflectance)", "format": "in vivo, human", "conditions": "FIG. 5; 1% extract or 2% kojic acid in Example 4 cream; 2 mg/cm^2 once a day; nine volunteers", "protocol": "A comparative study is done to determine the whitening efficacy of an Exophiala mansonii-derived enzyme extract in comparison to the efficacy of a known tyrosinase inhibitor, kojic acid. More specifically, the study was designed to study the lightening effect of these materials (reduction in tanning) using the fading of UV-B induced tan as a marker. Two samples are prepared. The first sample contains the composition described in Example 4. The second sample has the same composition as that described in Example 4 except that 2% kojic acid is substituted for the 1% Exophiala mansonii enzyme extract. Nine volunteers participate in the study. The volunteer panelists are in normal health with no evidence of acute or chronic disease including dermatological problems. […] Tanning is observed for six days after irradiation at which point color measurements are made using a Minolta Chromameter which measures the difference in reflectance of the skin, L. The change in the value of the difference in reflectance, ΔL*, is measured against a baseline skin color value of untreated irradiated skin measured on day 6. […] The observed reflectance values for all the time points are recorded, and the area under the curve for each test site was calculated. The Whitening Factor is calculated as the area under the curve of the treated site subtracted from the untreated site, and is shown in FIG. 5.", "data": [{"smiles": "O=c1cc(CO)occ1O", "note": "[kojic acid]", "values": [{"measurement": "Whitening Factor (area under the curve of the treated site subtracted from the untreated site)", "value": 1.8}]}]}
